Measured values as given in patent US12357695B2, “Peptides and nanoparticles for intracellular delivery of molecules” (AADIGEN, LLC, priority 2019, dated 2025).
Square brackets hold non-standard residues; d marks the D form. Ava = NCCCCC(=O)O; βAla = NCCC(=O)O

Columns and labels:
mice = assay: In vivo delivery of Luciferase mRNA by targeted ADGN-peptide variants, intravenous (Example 9); details: 5 μg Luc mRNA
mice or rat models = assay: Summary of cargo delivery to targeted organ (Table 1); type: in vivo; details: cargoes and route (IV, IM, SQ, NB) per peptide as listed in Table 1
Description: Table 1 lists a summary of cell-penetrating peptides that have been proven successful in delivering various cargo molecules to on or more targeted organ (e.g., by intravenous (IV), intramuscular (IM), or subcutaneous (SQ) administration, or intratraccheal instillation or nebulization (NB)) in mice or rat models.

293T cells = assay: Cellular delivery of Luciferase mRNA, luciferase expression at 72 hrs; type: cell-based; details: 0.25 μg Luc mRNA
Description: FIGS. 1A-1C show luciferase expression in 293T cells treated with ADGN-peptide/mRNA complexes. 293T cells cultured in 48 well plates were transfected with ADGN-peptide nanoparticles. ADGN-100, ADGN-106, ADGN-100RI, ADGN-106RI, ADGN-100 Stearyl, ADGN-Hydro1, ADGN-Hydro2, ADGN-Hydro3, ADGN-Hydro4, ADGN-Hydro5, ADGN-Hydro6 and ADGN-peptide/ADGN-100PEG 10% nanoparticles containing 0.25 μg mRNA were formed in sterile water, diluted in sterile water containing 5% Sucrose and filtered with 0.45 μm PES filters. ADGN/mRNA complexes were incubated for 3 hrs in the presence of either 25% serum or heparan sulfate prior transfection. Luciferase expression was monitored 72 hours post transfection and results were reported as RLU (luminescence):mg of protein.
Complex formation with mRNA. The following protocols were used for the transfection of 2-5 106 Cells or Cells at confluency of about 70-80% cultured in 24 well plates. ADGN peptide/mRNA particles were prepared at a 20:1 molar ratio of ADGN-Peptide/mRNA. using (0.25 μg) mRNA. Luc mRNA (0.25 μg) was diluted in 20 μl of sterile water (GIBCO) at room temperature. 5 μl Final Peptide Solution was added to obtain a total volume of 20 μl. The volume was adjusted to 50 μl with sterile water and was mixed gently with vortex 1 min low speed and incubated 30 min at room temperature. Then the volume was made up to 100 μl by adding sterile water containing 5% sucrose, and the solution was mixed gently with vortex 1 min low speed and incubate 5 min at 37° C. and then was proceeded to cell transfection.
Transfection protocol. Protocol is reported for 24 well plate format. Cells were cultured in Dulbecco's Modified Eagle's Medium (DMEM), supplemented with 2 mM glutamine, 1% antibiotics (streptomycin 10,000 μg/mL, penicillin, 10,000 IU/mL) and 10% (w/v) foetal calf serum (FCS), at 37° C. in a humidified atmosphere containing 5% CO2. 24 well plates seeded with 150,000 cells the day prior to transfection were grown to 50-60% confluence and set up to be at about 70% confluences at the time of transfection. Before transfection, cells were washed twice with DMEM. Cells were then overlaid with 0.1 ml of ADGN-peptide/cargo complex solution containing 0.25 μg mRNA, 0.15 μg plasmid DNA or 10-25 nM siRNA, mixed gently, and incubated for 10 min at 37° C. 0.2 mL of fresh DMEM, were added and cells were incubated for 20 min at 37° C. 1 mL of complete DMEM containing 15% FCS were then added in order to reach a final FCS concentration of 10%, without removing the overlay of ADGN-peptide/cargo complexes. Cells were returned to the incubator (37° C., 5% CO2) and 72 hrs post transfection.
ADGN-peptides were evaluated for cellular delivery of Luciferase mRNA in 293T cells. A single dose of mRNA of 0.25 μg was evaluated. Luc mRNA (0.25 μg) in sterile water (GIBCO) were mixed with ADGN-100, ADGN-100RI, ADGN-106, ADGN-106RI, ADGN-100 Stearyl, ADGN-Hydro1, ADGN-Hydro2, ADGN-Hydro5 and ADGN-Hydro6. ADGN-peptide/mRNA complexes were filtered with 0.45 μm PES filter. In order to evaluate the stability of the ADGN/mRNA complexes in high serum and cell culture conditions, the complexes were incubated for 3 hrs in the presence of either 25% serum or heparan sulfate prior transfection, then 293T cells were transfected and Luciferase expression was monitored at 72 hrs.
ADGN-106 peptides containing YIGSR targeting sequence were evaluated for cellular delivery of Luciferase mRNA in 293T cells. A single dose of mRNA of 0.25 μg was evaluated. Luc mRNA (0.25 μg) in sterile water (GIBCO) were mixed with ADGN-106 and ADGN-106Hydro variant. ADGN-peptide/mRNA complexes were filtered with 0.45 μm PES filter. The ADGN-106/mRNA complexes were incubated for 3 hrs in the presence of 25% serum prior transfection, then 293T cells were transfected and Luciferase expression was monitored at 72 hrs.

Row | Substance | target delivery and expression of mRNA (tissues) (mice) | Targeted Organ (mice or rat models) | further results
1 | Ac-LSSRLDA-Ava-KWWERWWREWPRKRR [ADGN-104] | heart and muscles and at lower level in the liver |  | 
2 | Ac-CKTRRVP-WRALWRLWRSLWRLLWKA-NH2 (Ac-CKTRRVPWRALWRLWRSLWRLLWKA-NH2) [ADGN-106TD] | heart and muscles | Muscle/Heart | 
3 | Ac-KWRSA(GalNac)LWRWRLWRVRSWSR-NH2 (Ac-KWRSA[GalNAc]LWRWRLWRVRSWSR-NH2; not fully specified; printed as Ac-KWRSA(GalNac)LWRWRLWRVRSWSR-NH2) [ADGN-100GALNAC] | mRNA accumulation in the liver | Liver | 
4 | AC-ALWRA(GalNac)LWRLWRSLWRLLWKA-NH2 [ADGN-106GALNAC] | mRNA accumulation in the liver | Liver | 
5 | Ac-TGNYKALHPDHNG-WRSALRWRLWRWSR-NH2 [ADGN-102] | the brain | Brain/Lung | increase of luciferase expression / efficiency in the lung relative to parent peptide (mice): 3 fold
6 | Ac-YIGSR-Ahx-ALWRALWRLWRSLWRLLWKA-NH2 [ADGN-106-Hydro-8] |  |  | luciferase expression (293T cells; absence of serum or heparan sulfate treatment): high level of luciferase expression; reduction of efficiency / luciferase expression after serum treatment (293T cells; complexes incubated 3 hrs in 25% serum prior transfection): 17%; increase of mRNA expression / efficiency in the liver relative to ADGN-106 or ADGN-100 (mice; liver): 2 folds; increase of efficiency in the muscle relative to ADGN-106 (mice; muscle): 5 folds
7 | Ac-ASSLNIA-Ava-KWWERWWREWPRKRR-NH2 [ADGN-103C] | negligible luciferase expression |  | 
8 | Ac-KSYDTY[Ava]ALRWLRWASRWFSRWAWR-NH2 [ADGN-109] | the brain and lymphnode and at lower level in liver and kidney |  | 
9 | Ac-YIGSR-Ahx-KWRSALWRWRLWRVRSWSR-NH2 [ADGN-100-Hydro-8] |  | Tumor/Lung | increase of efficiency in the kidney relative to ADGN-100 (mice; kidney): 4 folds; increase of luciferase expression / efficiency in the lung relative to parent peptide (mice): 22 fold
10 | Ac-CKRAV-RWWLRWASRWFSRWAWWR-NH2 [ADGN-109b] | the lung, heart and muscles |  | 
11 | Ac-KSYDTYAAETR-RWASRWFSRWAWWR-NH2 [ADGN-109D] | the brain and lymphnode and at lower level in liver and kidney |  | 
12 | Ac-THRPPNWSPVWP-RALWRLWRSLWRLRWKA-NH2 (Ac-THRPPNWSPVWPRALWRLWRSLWRLRWKA-NH2) [ADGN-106TC] | the brain | Brain | 
13 | Ac-CARPAR-WRSAGWRWRLWRVRSWSR-NH2 (Ac-CARPARWRSAGWRWRLWRVRSWSR-NH2) [ADGN-101] | heart and muscles | Heart/Lung | increase of luciferase expression / efficiency in the lung relative to parent peptide (mice): 6 fold
14 | Ac-SYTSSTM-Ava-KWWERWWREWPRKRR [ADGN-105] | the brain and at lower level in liver, lung and lymphnode |  | 
15 | Ac-SYTSSTM-Ava-βALWRALWRLWRSLWRLLWKA-NH2 (Ac-SYTSSTM[Ava][βAla]LWRALWRLWRSLWRLLWKA-NH2; SMILES CSCC[C@H](NC(=O)[C@@H](NC(=O)[C@H](CO)NC(=O)[C@H](CO)NC(=O)[C@@H](NC(=O)[C@H](Cc1ccc(O)cc1)NC(=O)[C@H](CO)NC(C)=O)[C@@H](C)O)[C@@H](C)O)C(=O)NCCCCC(=O)NCCC(=O)N[C@@H](CC(C)C)C(=O)N[C@@H](Cc1c[nH]c2ccccc12)C(=O)N[C@@H](CCCNC(=N)N)C(=O)N[C@@H](C)C(=O)N[C@@H](CC(C)C)C(=O)N[C@@H](Cc1c[nH]c2ccccc12)C(=O)N[C@@H](CCCNC(=N)N)C(=O)N[C@@H](CC(C)C)C(=O)N[C@@H](Cc1c[nH]c2ccccc12)C(=O)N[C@@H](CCCNC(=N)N)C(=O)N[C@@H](CO)C(=O)N[C@@H](CC(C)C)C(=O)N[C@@H](Cc1c[nH]c2ccccc12)C(=O)N[C@@H](CCCNC(=N)N)C(=O)N[C@@H](CC(C)C)C(=O)N[C@@H](CC(C)C)C(=O)N[C@@H](Cc1c[nH]c2ccccc12)C(=O)N[C@@H](CCCCN)C(=O)N[C@@H](C)C(N)=O) [ADGN-106TB] | the brain | Brain/Liver | 
